# Assay results reported in patent US11175296B2, “Methods of diagnosing and treating cancer comprising ME1” (Washington University, priority 2016, dated 2021).
# Where a SMILES comes first, the peptide text is derived from it. The star is where a group is joined. Cbz = O=C(OCc1ccccc1)*; CH2F = FC*
# Legend:
# [1] = test system: SYO-1 and FUJI cell lines; assay: Treatment with G6PD inhibitor DHEA and DHEA analogs, cell death; type: cell-based; conditions: over a course of 48 hours
# Experimental: (§1) For FACS analysis, cell lines were plated at 200,000 cells per well, and incubated in various culture conditions. Media was collected in a FACS tube and samples were washed with PBS. The PBS was transferred into the FACS tube, and 0.5 mL 0.05% Trypsin/EDTA was added to each well. Samples were incubated for 5 minutes at 37° C., and diluted with 0.5 mL complete media before being transferred to the FACS tube. Wells were washed once with PBS, transferred to the FACS tube, and centrifuged at 800 g for 5 minutes at room temperature. The supernatant was aspirated off, and pellets were resuspended in 200 μL PBS (unstained control samples used for gating) or 200 μL of 1 μg/mL propidium iodide dissolved in PBS. Samples were run on a FAScan instrument and fluorescence analyzed on the Blue FL2 channel. Data was further analyzed using FloJo software.
# (§2) For the evaluation of glucose deprivation alone and under additional conditions, cell lines were plated in a 6-well format at 200,000 cells per well on day 1. SYO was cultured and plated in Dulbecco's Modified Eagle Medium (DMEM) with 10% FBS and penicillin/streptomycin (include additional glucose concentration), which FUJI was cultured in RPMI medium with 10% FBS and penicillin/streptomycin. […] Samples were then ran and fluorescence analyzed via Blue FL2 channel on a FAScan instrument. […]
# SYO-1 xenograft tumor = assay: SYO-1 xenograft in nude athymic mice, tumor size; type: in vivo; conditions: 1 mg/day for 12 days
# Experimental: Sixty nude athymic mice (Nu/J homozygous Cat#002019, The Jackson Lab) were xenografted with 1×10^6 SYO-1 cells that had been resuspended in 1×PBS 30% Matrigel (Corning, Inc., Cat# CB-40234). Mice were anesthetized with 1-2% isofluorane and injected at the left flank. The mice were observed until each tumor size was 100 mm3 by caliper measurement, at which point each individual mouse began daily injections of DHEA 1 mg/30 uL ( ), SWV-49s 3.75 mM, SWV-273.75 mM, SV-119 3.75 mM, SWV-27/SV-119 3.75 mM, or control vehicle Cremiphor. All agents were suspended in Cremiphor. Treatment or placebo injections continued for a total of 12 days. Daily caliper and weight measurements for a total of 30 days were undertaken for each cohort. Mice were sacrificed appropriately by “ ” guidelines and after the conclusion of the in vivo experiment.
# [2] = test system: SYO-1 and FUJI synovial sarcoma (SS) cell lines; assay: Pretreatment before glucose deprivation, protection from cell death (PI FACS); type: cell-based
# Experimental: During the routine cell culture splitting procedure, cell lines were plated in 6 well plates at 200,000 cells in 2 mL media. Samples were incubated at 37° C. for duration of experiment. Samples were washed with PBS and detached with 0.05% Trypsin/EDTA. Aliquots were diluted 1:2 with Trypan Blue (Sigma) and a viable cell count was obtained using a hemacytometer. For glucose and glutamine deprivation experiments, 200,000 cells were plated in standard media and incubated overnight. Samples were washed 3 times with 1×DPBS (Gibco), and the media was changed to DMEM (control samples) or glucose/glutamine free DMEM (experimental samples). Cell counts were taken as previously described at 2, 4, 6, and 8 hours after the media was changed, and normalized to cell counts taken from growth samples counted at the time the media was changed.
# as §1
# Cell viability was determined in tissue culture experiments by the trypan blue dye exclusion test. For the evaluation of glucose deprivation, cell lines were plated in a 6-well format at 200,000 cells per well on day 1. SYO was cultured and plated in Dulbecco's Modified Eagle Medium (DMEM) with 10% FBS and penicillin/streptomycin (include additional glucose concentration), which FUJI was cultured in RPMI medium with 10% FBS and penicillin/streptomycin. The following day, glucose-containing media was removed, and each well was washed with 1-2 mL of phosphate buffered saline (PBS) three times to ensure elimination of residual glucose. Glucose-free media was then replaced in each well for the duration of the experiment. At the end point, the glucose-free media was removed and each well washed with 1 mL of PBS. One-half milliliter of trypsin 0.05% was then applied to each well, later aggressively resuspended in 0.5 mL of media for a total cell volume of 1 mL. Twenty microliters of each well was then counted via hemocytometer, excluding those non-viable cells that were positive for trypan blue uptake and/or fragmented.
# For the evaluation of glucose deprivation alone and under additional conditions, cell lines were plated in a 6-well format at 200,000 cells per well on day 1. SYO was cultured and plated in Dulbecco's Modified Eagle Medium (DMEM) with 10% FBS and penicillin/streptomycin (include additional glucose concentration), which FUJI was cultured in RPMI medium with 10% FBS and penicillin/streptomycin. The following day, glucose-containing media was removed, and each well was washed with 1-2 mL of phosphate buffered saline (PBS) three times to ensure elimination of residual glucose. Glucose-free media was then replaced in each well for the duration of the experiment. […]
# [3] = test system: SYO-1 and FUJI cell lines; assay: Erastin / sigma-2 erastin treatment, cell death; type: cell-based; conditions: in as little as 8 hours, compared to control lines SKLMS-1 and MG63
# Experimental: as §1, §2
# [4] = Phase I open-label study of olaratumab and doxorubicin in patients with advanced soft tissue sarcoma (PK, DDI, safety)
# Experimental: Patients with metastatic or locally advanced STS not amenable to treatment with surgery or curative radiotherapy, aged years with an ECOG PS of 0-2 and documented LVE fraction ≥50% were included. The primary objective was to assess the effect of Olara on the PK of Dox. Secondary objectives were to further characterize the PK and safety profiles of Olara alone and in combination with Dox. Drug-drug interaction (DDI) was assessed in 21-day cycles, where patients received each drug alone (Cycle 1) then in combination (Cycle 2). In Cycles 3-8, patients with clinical benefit could continue treatment with Olara+Dox. 15-mg/kg Olara was given IV over ˜60 min; 75-mg/m^2 Dox was given IV over ˜15 min.
# [5] = pretreatment one hour prior to glucose-free media change
molecule,measurement,setting,value
"C[C@]12CC[C@H](O)CC1=CC[C@@H]1[C@@H]2CC[C@]2(C)C(=O)CC[C@@H]12 [DHEA, dehydroepiandrosterone]",cell death,[1],varying but significant cell death
same,tumor size,SYO-1 xenograft tumor,dramatic decrease in tumor size
same,tolerability of dose and regimen,SYO-1 xenograft tumor; murine model,well-tolerated
CC(=O)N[C@@H](CS)C(=O)O [NAC],protection from cell death under glucose deprivation,"[2]; 10 mM, pretreated one hour prior to glucose deprivation, 2 and 6 hours",protection from cell death was noted
CC(NC(=O)C(NC(=O)OCc1ccccc1)C(C)C)C(=O)NC(CC(=O)O)C(=O)CF (stereo not drawn) [ZVAD] (Cbz-Val-Ala-Asp-CH2F; configuration not given here),protection from cell death under glucose deprivation,[2]; [5],did not result in protection from cell death
Cc1c(O)c(=O)ccn1C [deferiprone],protection from cell death under glucose deprivation,"[2]; pretreated one hour prior to glucose deprivation, acute time course of 2-6 hours",significant protection from cell death
CCOc1ccccc1-n1c(C(C)N2CCN(C(=O)COc3ccc(Cl)cc3)CC2)nc2ccccc2c1=O (stereo not shown) [erastin],cell death,[3],approximately 40%
CCOC(=O)c1ccc(NC2CCCCC2)c(N)c1 [ferrostatin],protection from cell death under glucose deprivation,[2]; [5],significant protection from glucose-deprivation mediated cell death
CN1C(=O)C(Cc2c[nH]c3ccccc23)NC1=S (stereo not shown) [necrostatin],protection from cell death under glucose deprivation,[2]; [5],did not result in protection from cell death
Olaratumab,effect on systemic exposure to Dox,"[4]; IV infusion, both agents given in combination",did not have a clinically relevant effect
same,CL,"[4]; human, in vivo",0.0218 L/h
same,mean CL,"[4]; human, in vivo",0.0259 L/h
same,mean Cmax,"[4]; human, in vivo",393 µg/mL
same,median tmax post start of infusion,"[4]; human, in vivo",~2.8 h
same,time of Cmax post start of infusion,"[4]; human, in vivo",~2 h
same,mean Cmax,"[4]; human, in vivo, iv, 15 mg/kg",293 µg/mL
